Source: patent US11919965B2, “Methods of treating multiple myeloma with bispecific anti-BCMA x anti-CD3 antibodies” (Regeneron Pharmaceuticals, Inc., priority 2019, dated 2024)

Columns and labels:
[1] = test system: patients with relapsed or refractory multiple myeloma; test: Phase 1/2 clinical study of REGN5458 monotherapy; settings: for Complete response (CR) or stringent CR (sCR) / Overall response rate (ORR) / Partial response (PR) / Very good partial response (VGPR): preliminary results
[2] = test system: Jurkat/NFATLuc.3C7 reporter cells with HEK293 cells (BCMA negative); test: Jurkat/NFATLuc reporter bioassay (T-cell activation); format: cell-based, human
Method: (§1) Activity of the anti-BCMA×anti-CD3 bispecific antibodies were assessed in a Jurkat/NFATLuc reporter bioassay utilizing several cell lines with varying levels of BCMA surface expression. The Jurkat cells were engineered to express an NFAT-luciferase reporter (Jurkat/NFATLuc.3C7), and 50,000 Jurkat reporter cells were combined with 50,000 BCMA positive (Daudi, MM1-S, NCI-H929, OPM-2, RPMI-8226, MOLP-8, or Raji) or BCMA negative (HEK293) cells in Thermo Nunclon delta 96 well white microwell plates (Thermo Scientific, Cat #136102) in 50 ul of assay media (RPMI media with 10% FBS and 1% P/S/G). Three-fold serial dilutions of the BCMA×CD3 bispecific antibodies (mAb25441D or mAb25442D), or a bivalent anti-BCMA antibody (mAb21581) were immediately added in 50 uL of assay buffer. The plates were gently agitated and incubated in a 37° C., 5% CO2 incubator for 4-6 hours. NFAT-Luciferase activity was determined using Promega One-Glo (Cat #E6130) and a Perkin Elmer Envision plate reader. RLU were plotted in GraphPad Prism using a four-parameter logistic equation over a 12-point response curve to calculate EC50 values. The no antibody treatment condition for each dose-response curve is also included in the analysis as a continuation of the three-fold serial dilution and is represented as the lowest dose. The signal to noise (S:N) is determined by taking the ratio of the highest RLU on the curve to the lowest.

[3] = test system: Jurkat/NFATLuc.3C7 reporter cells with Raji cells (BCMA positive); test: as above; format: cell-based, human
Method: as §1

[4] = test system: Jurkat/NFATLuc.3C7 reporter cells with MM1-S cells (BCMA positive); test: as above; format: cell-based, human
Method: as §1

[5] = test system: Jurkat/NFATLuc.3C7 reporter cells with RPMI-8226 cells (BCMA positive); test: as above; format: cell-based, human
Method: as §1

[6] = test system: BCMA+ OPM-2-luciferase tumors; test: Xenogenic tumor model, i.v. OPM-2-luciferase in PBMC-engrafted NSG mice, bioluminescence (Example 15); format: in vivo, mouse; settings: 0.4 mg/kg; for tumor burden: three doses; for Radiance [p/s/cm2^2/sr] 5 days post-implantation (mean ± SEM) / Radiance [p/s/cm2^2/sr] 11 days post-implantation (mean ± SEM) / Radiance [p/s/cm2^2/sr] 20 days post-implantation (mean ± SEM): before first dose (day 21)
Method: (§2) To determine the in vivo efficacy of anti-BCMA×anti-CD3 bispecific antibodies (Abs), a xenogenic tumor study was performed. On day 0, immunodeficient NOD.Cg-Prkdc^scidII2rg^tm1Wjl/SzJ (NSG) mice were intravenously administered 2×10^6 BCMA^+ OPM-2 human multiple myeloma tumor cells that were engineered to also express firefly luciferase (OPM-2-luciferase cells). On day 10, the mice were intraperitoneally injected with 4×10^6 human peripheral blood mononuclear cells (PBMC) from a normal, healthy donor. […] The mice were administered these Abs twice more on days 25 and 28, for a total of three doses. Tumor growth was assessed through day 61 by measuring tumor bioluminescence (BLI) in anesthetized animals. As a positive control, a group of mice (n=5) was given only OPM-2-luciferase cells, but not PBMC or antibody.
as §2, with “Implantation and measurement” for “To determine the in vivo efficacy”, “of” for “of anti-BCMA×anti-CD3 bispecific antibodies (Abs), a”, “tumors:” for “tumor study was performed.”, “NOD.Cg-Prkdc^scidII2rg^tm1Wkl/SzJ” for “NOD.Cg-Prkdc^scidII2rg^tm1Wjl/SzJ”
Measurement of xenogenic tumor growth: BLI imaging was used to measure tumor burden. Mice were injected IP with 150 mg/kg of the luciferase substrate D-luciferin suspended in PBS. Five minutes after this injection, BLI imaging of the mice was performed under isoflurane anesthesia using the Xenogen IVIS system. Image acquisition was carried out with the field of view at D, subject height of 1.5 cm, and medium binning level with automatic exposure time determined by the Living Image Software. BLI signals were extracted using Living Image software: regions of interest were drawn around each tumor mass and photon intensities were recorded as p/s/cm2/sr.

[7] = Dose Levels 1, 2, 3 (3, 6, 12 mg; n = 24)
[8] = Dose Levels 4, 5 (24, 48 mg; n = 17)
[9] = patients with marrow plasmacytosis <50%

For “REGN5458: anti-BCMA×anti-CD3 bispecific antibody: mAb21581 BCMA heavy chain, mAb7221G CD3 heavy chain and common light chain; SEQ ID NOs 126, 127, 129”, which “Complete response (CR) or stringent CR (sCR)” value (from here on “Complete response … (sCR)”) ([1]; Dose Level 6 (96 mg; n = 8)) is on record?
The value was 0% (0).

And the “Overall response rate (ORR)” value ([1]; Dose Level 6 (96 mg; n = 8))?
The value was 63% (5).

What about the “Partial response (PR)” value ([1]; Dose Level 6 (96 mg; n = 8)) of the same substance?
The value was 0% (0).

And the “Very good partial response (VGPR)” value ([1]; Dose Level 6 (96 mg; n = 8))?
Its value is 63% (5).

What about the “Complete response … (sCR)” value [1, 7] of the same substance?
The value was 21% (5).

What about the “Overall response rate (ORR)” value [1, 7] of the same substance?
Its value is 29% (7).

And the “Partial response (PR)” value [1, 7]?
Its value is 4% (1).

And the “Very good partial response (VGPR)” value [1, 7]?
The value was 4% (1).

And the “Complete response … (sCR)” value [1, 8]?
The value was 18% (3).

And the “Overall response rate (ORR)” value [1, 8]?
Its value is 41% (7).

What about the “Partial response (PR)” value [1, 8] of the same substance?
Its value is 0% (0).

What about the “Very good partial response (VGPR)” value [1, 8] of the same substance?
The value was 24% (4).

And the “objective response rate (ORR)” value ([1]; dose level 6)?
The value was 62.5%.

And the “objective response rate (ORR)” value ([1]; dose levels 1 to 3)?
The value was 29.2%.

What about the “objective response rate (ORR)” value ([1]; dose levels 4 and 5) of the same substance?
Its value is 41.2%.

And the “observed median duration of response” value ([1]; human, in vivo)?
The value was 6.01 months.

And the “complete response (CR) or stringent CR” value ([1]; of responders)?
The value was 42.1%.

What about the “responders achieving at least a very good partial response (VGPR)” value ([1]; of responders) of the same substance?
Its value is 95%.

What about the “responders with DOR ≥8 months” value ([1]; of responders) of the same substance?
The value was 36.8%.

And the “responders with duration of response (DOR) ≥4 months” value ([1]; of responders)?
Its value is 63.2%.

And the ORR ([1]; patients with extramedullary plasmacytomas (EMP))?
Its ORR is 14.3%.

And the ORR [1, 9]?
Its ORR is 71.4%.

And the stringent complete response [1, 9]?
The stringent complete response was 35.7%.

And the “very good partial response” value [1, 9]?
Its value is 35.7%.

And the ORR ([1]; patients with marrow plasmacytosis ≥50%)?
Its ORR is 9.1%.

What about the ORR ([1]; patients without EMP) of the same substance?
The ORR was 45%.

And the “complete response or stringent complete response” value ([1]; patients without EMP)?
The value was 20%.

And the “very good partial response” value ([1]; patients without EMP)?
Its value is 22.5%.

And the “responders receiving ongoing treatment” value ([1]; to date)?
The value was 74%.

And the “S:N (highest RLU to lowest)” value [2]?
The value was 1.

And the “S:N (highest RLU to lowest)” value [3]?
Its value is 123.

And the “S:N (highest RLU to lowest)” value [4]?
Its value is 165.

And the “S:N (highest RLU to lowest)” value [5]?
Its value is 55.

And the “Radiance [p/s/cm2^2/sr] 26 days post-implantation (mean ± SEM)” value [6]?
Its value is 1.73E+06 ± 8.69E+05 p/s/cm2^2/sr.

And the “Radiance [p/s/cm2^2/sr] 31 days post-implantation (mean ± SEM)” value [6]?
Its value is 3.50E+06 ± 2.42E+06 p/s/cm2^2/sr.

What about the “Radiance [p/s/cm2^2/sr] 34 days post-implantation (mean ± SEM)” value [6] of the same substance?
The value was 4.85E+06 ± 3.24E+06 p/s/cm2^2/sr.

What about the “Radiance [p/s/cm2^2/sr] 38 days post-implantation (mean ± SEM)” value [6] of the same substance?
The value was 5.30E+06 ± 3.44E+06 p/s/cm2^2/sr.

What about the “Radiance [p/s/cm2^2/sr] 40 days post-implantation (mean ± SEM)” value [6] of the same substance?
The value was 5.06E+06 ± 3.36E+06 p/s/cm2^2/sr.

And the “Radiance [p/s/cm2^2/sr] 47 days post-implantation (mean ± SEM)” value [6]?
The value was 7.76E+05 ± 7.85E+04 p/s/cm2^2/sr.

What about the “Radiance [p/s/cm2^2/sr] 54 days post-implantation (mean ± SEM)” value [6] of the same substance?
Its value is 5.78E+05 ± 1.15E+05 p/s/cm2^2/sr.

And the “Radiance [p/s/cm2^2/sr] 61 days post-implantation (mean ± SEM)” value [6]?
Its value is 5.23E+05 ± 4.10E+04 p/s/cm2^2/sr.

And the “tumor burden” value [6]?
The value was “reduced tumor burdens to background levels in the majority of animals”.

What about the “Radiance [p/s/cm2^2/sr] 5 days post-implantation (mean ± SEM)” value [6] of the same substance?
The value was 5.87E+05 ± 2.40E+04 p/s/cm2^2/sr.

And the “Radiance [p/s/cm2^2/sr] 11 days post-implantation (mean ± SEM)” value [6]?
The value was 6.19E+05 ± 4.39E+04 p/s/cm2^2/sr.

What about the “Radiance [p/s/cm2^2/sr] 20 days post-implantation (mean ± SEM)” value [6] of the same substance?
Its value is 1.81E+06 ± 2.37E+05 p/s/cm2^2/sr.

What does the source list for “REGN5459: anti-BCMA×anti-CD3 bispecific antibody: mAb21581 BCMA heavy chain, mAb7221G20 CD3 heavy chain and common light chain; SEQ ID NOs 126, 128, 129”?
S:N (highest RLU to lowest) [2]: 1; S:N (highest RLU to lowest) [3]: 78; S:N (highest RLU to lowest) [4]: 120; S:N (highest RLU to lowest) [5]: 42; Radiance [p/s/cm2^2/sr] 26 days post-implantation (mean ± SEM) [6]: 1.28E+06 ± 7.36E+05 p/s/cm2^2/sr; Radiance [p/s/cm2^2/sr] 31 days post-implantation (mean ± SEM) [6]: 1.98E+06 ± 1.36E+06 p/s/cm2^2/sr; Radiance [p/s/cm2^2/sr] 34 days post-implantation (mean ± SEM) [6]: 4.24E+06 ± 3.69E+06 p/s/cm2^2/sr; Radiance [p/s/cm2^2/sr] 38 days post-implantation (mean ± SEM) [6]: 3.21E+06 ± 2.52E+06 p/s/cm2^2/sr; Radiance [p/s/cm2^2/sr] 40 days post-implantation (mean ± SEM) [6]: 3.84E+06 ± 3.34E+06 p/s/cm2^2/sr; Radiance [p/s/cm2^2/sr] 47 days post-implantation (mean ± SEM) [6]: 7.34E+05 ± 2.62E+04 p/s/cm2^2/sr; Radiance [p/s/cm2^2/sr] 54 days post-implantation (mean ± SEM) [6]: 6.41E+05 ± 5.96E+04 p/s/cm2^2/sr; Radiance [p/s/cm2^2/sr] 61 days post-implantation (mean ± SEM) [6]: 6.03E+05 ± 5.29E+04 p/s/cm2^2/sr; tumor burden [6]: reduced tumor burdens to background levels in the majority of animals; Radiance [p/s/cm2^2/sr] 5 days post-implantation (mean ± SEM) [6]: 5.09E+05 ± 3.56E+04 p/s/cm2^2/sr; Radiance [p/s/cm2^2/sr] 11 days post-implantation (mean ± SEM) [6]: 6.45E+05 ± 2.39E+04 p/s/cm2^2/sr; Radiance [p/s/cm2^2/sr] 20 days post-implantation (mean ± SEM) [6]: 2.13E+06 ± 1.69E+05 p/s/cm2^2/sr
